In the CheMixHub ionic liquid set:
± gives the uncertainty stated by the source.

Assay: xn = mol fraction of the nth substance listed

Which viscosity (293.15 K, 101 kPa, x2 = 0) does the source give for `CN(C)C=O` + CCCCCCCCn1cc[n+](C)c1.N#C[S-] here?
Its viscosity is 0.881 ± 0.026 mPa·s.

And the viscosity (303.15 K, 101 kPa, x2 = 0)?
The viscosity was 0.771 ± 0.023 mPa·s.

What about the viscosity (313.15 K, 101 kPa, x2 = 0) of the same molecule?
The viscosity was 0.668 ± 0.022 mPa·s.

What about the viscosity (323.15 K, 101 kPa, x2 = 0) of the same molecule?
The viscosity was 0.605 ± 0.021 mPa·s.

What about the viscosity (333.15 K, 101 kPa, x2 = 0) of the same molecule?
The viscosity was 0.553 ± 0.019 mPa·s.

And the viscosity (353.15 K, 101 kPa, x2 = 0)?
The viscosity was 0.479 ± 0.015 mPa·s.

What about the viscosity (363.15 K, 101 kPa, x2 = 0) of the same molecule?
Its viscosity is 0.447 ± 0.014 mPa·s.

For `CN1CCCC1=O` + CCCCCCCCn1cc[n+](C)c1.N#C[S-], which viscosity (288.15 K, 101 kPa, x2 = 0) is on record?
The viscosity was 2.127 ± 0.023 mPa·s.

And the viscosity (298.15 K, 101 kPa, x2 = 0)?
Its viscosity is 1.785 ± 0.02 mPa·s.

What about the viscosity (308.15 K, 101 kPa, x2 = 0) of the same molecule?
Its viscosity is 1.543 ± 0.018 mPa·s.

And the viscosity (318.15 K, 101 kPa, x2 = 0)?
Its viscosity is 1.306 ± 0.017 mPa·s.

With `CN(C)C=O` + CCCCCCCCn1cc[n+](C)c1.O=S(=O)([N-]S(=O)(=O)C(F)(F)F)C(F)(F)F as the molecule, how does the viscosity (293.15 K, 101 kPa, x2 = 0) read?
Its viscosity is 0.881 ± 0.035 mPa·s.

What about the viscosity (303.15 K, 101 kPa, x2 = 0) of the same molecule?
The viscosity was 0.771 ± 0.036 mPa·s.

What about the viscosity (313.15 K, 101 kPa, x2 = 0) of the same molecule?
The viscosity was 0.668 ± 0.037 mPa·s.

What about the viscosity (323.15 K, 101 kPa, x2 = 0) of the same molecule?
The viscosity was 0.605 ± 0.038 mPa·s.

And the viscosity (333.15 K, 101 kPa, x2 = 0)?
Its viscosity is 0.553 ± 0.037 mPa·s.

What about the viscosity (353.15 K, 101 kPa, x2 = 0) of the same molecule?
The viscosity was 0.479 ± 0.029 mPa·s.

What about the viscosity (363.15 K, 101 kPa, x2 = 0) of the same molecule?
Its viscosity is 0.447 ± 0.023 mPa·s.

For `CCCCCCCCCC[n+]1ccn(C)c1.[Br-]` + CCCCCCCCn1cc[n+](C)c1.[Br-] + O, which electrical conductivity (298.15 K, 101 kPa, x2 = 0.001457, x1 = 0.0002702) is on record?
The electrical conductivity was 0.7 ± 0.02 S/m.

And the electrical conductivity (298.15 K, 101 kPa, x2 = 0.002534, x1 = 0.0004683)?
The electrical conductivity was 1.01 ± 0.02 S/m.

What about the electrical conductivity (298.15 K, 101 kPa, x2 = 0.003323, x1 = 0.0006123) of the same molecule?
The electrical conductivity was 1.2 ± 0.02 S/m.

What about the electrical conductivity (298.15 K, 101 kPa, x2 = 0.003985, x1 = 0.0007203) of the same molecule?
Its electrical conductivity is 1.33 ± 0.03 S/m.

What about the electrical conductivity (298.15 K, 101 kPa, x2 = 0.00477, x1 = 0.0008642) of the same molecule?
Its electrical conductivity is 1.45 ± 0.03 S/m.

And the electrical conductivity (298.15 K, 101 kPa, x2 = 0.005466, x1 = 0.0009901)?
Its electrical conductivity is 1.55 ± 0.03 S/m.

For `CN1CCCC1=O` + CCCCCCCCn1cc[n+](C)c1.[Cl-], which viscosity (293.15 K, 100 kPa, x1 = 1) is on record?
The viscosity was 1.853 ± 0.076 mPa·s.

And the viscosity (318.15 K, 100 kPa, x1 = 1)?
Its viscosity is 1.259 ± 0.052 mPa·s.

Which viscosity (298 K, 100 kPa, x1 = 1) does the source give for `CCCC[n+]1ccn(C)c1.O=S(=O)([N-]S(=O)(=O)C(F)(F)F)C(F)(F)F` + CCCCCCCO here?
The viscosity was 49.7 ± 1.3 mPa·s.

Which viscosity (298 K, 100 kPa, x1 = 1) does the source give for `CCCC[n+]1ccn(C)c1.O=S(=O)([N-]S(=O)(=O)C(F)(F)F)C(F)(F)F` + CCCCCCO here?
Its viscosity is 49.7 ± 1.3 mPa·s.

For `CC#N` + CCCCCC[P+](CCCC)(CCCC)CCCC.F[B-](F)(F)F, which viscosity (293.15 K, 100 kPa, x2 = 0) is on record?
The viscosity was 0.354 ± 0.021 mPa·s.

And the viscosity (298.15 K, 100 kPa, x2 = 0)?
The viscosity was 0.338 ± 0.02 mPa·s.

And the viscosity (303.15 K, 100 kPa, x2 = 0)?
The viscosity was 0.324 ± 0.02 mPa·s.

What about the viscosity (308.15 K, 100 kPa, x2 = 0) of the same molecule?
The viscosity was 0.31 ± 0.019 mPa·s.

And the viscosity (313.15 K, 100 kPa, x2 = 0)?
The viscosity was 0.298 ± 0.018 mPa·s.

And the viscosity (318.15 K, 100 kPa, x2 = 0)?
The viscosity was 0.286 ± 0.017 mPa·s.

What does the source list for `CN1CCCC1=O` + CCCCCC[n+]1ccn(C)c1.N#C[S-]?
viscosity (288.15 K, 101 kPa, x2 = 0): 2.133 ± 0.023 mPa·s; viscosity (298.15 K, 101 kPa, x2 = 0): 1.791 ± 0.02 mPa·s; viscosity (308.15 K, 101 kPa, x2 = 0): 1.548 ± 0.018 mPa·s; viscosity (318.15 K, 101 kPa, x2 = 0): 1.312 ± 0.017 mPa·s

With `COCCOCCOCCOCCOC` + CCCCCC[n+]1ccn(C)c1.O=S(=O)([N-]S(=O)(=O)C(F)(F)F)C(F)(F)F as the molecule, how does the viscosity (288.15 K, 100 kPa, x1 = 0.099) read?
The viscosity was 96 ± 2 mPa·s.

Which electrical conductivity (303 K, 101 kPa, x2 = 0.6) does the source give for `CCCCCC[n+]1ccn(C)c1.F[P-](F)(F)(F)(F)F` + CCCCCC[n+]1ccn(C)c1.[Cl-] here?
Its electrical conductivity is 0.0103 ± 0.00084 S/m.

And the electrical conductivity (303 K, 101 kPa, x2 = 0.8)?
The electrical conductivity was 0.00536 ± 0.00045 S/m.

And the viscosity (303.15 K, 101 kPa, x2 = 0.2)?
The viscosity was 960 ± 300 mPa·s.

And the viscosity (303.15 K, 101 kPa, x2 = 0.4)?
The viscosity was 1853 ± 590 mPa·s.

And the electrical conductivity (308 K, 101 kPa, x2 = 0.4)?
The electrical conductivity was 0.0299 ± 0.0024 S/m.

What about the electrical conductivity (308 K, 101 kPa, x2 = 0.8) of the same molecule?
Its electrical conductivity is 0.00862 ± 0.00071 S/m.

What about the viscosity (308.15 K, 101 kPa, x2 = 0) of the same molecule?
Its viscosity is 360 ± 110 mPa·s.

And the electrical conductivity (313 K, 101 kPa, x2 = 0)?
Its electrical conductivity is 0.13 ± 0.01 S/m.

And the electrical conductivity (313 K, 101 kPa, x2 = 0.4)?
Its electrical conductivity is 0.0424 ± 0.0034 S/m.

What about the electrical conductivity (318 K, 101 kPa, x2 = 0.6) of the same molecule?
Its electrical conductivity is 0.0337 ± 0.0027 S/m.

And the viscosity (318.15 K, 101 kPa, x2 = 0.4)?
Its viscosity is 600 ± 190 mPa·s.

What about the viscosity (323.15 K, 101 kPa, x2 = 0.6) of the same molecule?
Its viscosity is 710 ± 220 mPa·s.

What about the electrical conductivity (328 K, 101 kPa, x2 = 0) of the same molecule?
The electrical conductivity was 0.26 ± 0.021 S/m.

And the electrical conductivity (328 K, 101 kPa, x2 = 0.8)?
Its electrical conductivity is 0.0419 ± 0.0034 S/m.

And the viscosity (328.15 K, 101 kPa, x2 = 0.2)?
Its viscosity is 205 ± 62 mPa·s.

For `CN(C)C=O` + CCCCCC[n+]1ccn(C)c1.[Cl-], which viscosity (288.15 K, 101 kPa, x1 = 1) is on record?
Its viscosity is 0.94 ± 0.22 mPa·s.

And the viscosity (298.15 K, 101 kPa, x1 = 1)?
Its viscosity is 0.82 ± 0.21 mPa·s.

For `CCCC[n+]1ccn(C)c1.O=S(=O)([N-]S(=O)(=O)C(F)(F)F)C(F)(F)F` + CCCCCO, which viscosity (298 K, 100 kPa, x1 = 1) is on record?
The viscosity was 49.7 ± 1.3 mPa·s.

What does the source list for `CCCCC[P+](CC)(CC)CC.O=S(=O)([N-]S(=O)(=O)C(F)(F)F)C(F)(F)F` + CCCCC[N+](CC)(CC)CC.O=S(=O)([N-]S(=O)(=O)C(F)(F)F)C(F)(F)F?
viscosity (283.15 K, 101.3 kPa, x2 = 0): 203 ± 41 mPa·s; viscosity (323.15 K, 101.3 kPa, x2 = 0): 30.5 ± 6.1 mPa·s

What does the source list for `CCCC[n+]1ccn(C)c1.O=S(=O)([N-]S(=O)(=O)C(F)(F)F)C(F)(F)F` + CCCCO?
viscosity (298 K, 100 kPa, x1 = 0.05): 3.52 ± 0.026 mPa·s; viscosity (298 K, 100 kPa, x1 = 0.1): 4.728 ± 0.042 mPa·s; viscosity (298 K, 100 kPa, x1 = 0.1998): 6.745 ± 0.067 mPa·s; viscosity (298 K, 100 kPa, x1 = 0.2996): 8.98 ± 0.11 mPa·s; viscosity (298 K, 100 kPa, x1 = 0.399): 11.9 ± 0.16 mPa·s; viscosity (298 K, 100 kPa, x1 = 0.4991): 15.1 ± 0.24 mPa·s; viscosity (298 K, 100 kPa, x1 = 0.5995): 19.41 ± 0.34 mPa·s; viscosity (298 K, 100 kPa, x1 = 0.6984): 24.48 ± 0.48 mPa·s; viscosity (298 K, 100 kPa, x1 = 0.7971): 31.76 ± 0.69 mPa·s; viscosity (298 K, 100 kPa, x1 = 0.9005): 39.89 ± 0.95 mPa·s; viscosity (298 K, 100 kPa, x1 = 1): 49.7 ± 1.3 mPa·s; viscosity (298 K, 101 kPa, x2 = 0): 50.4 ± 1.9 mPa·s; electrical conductivity (298 K, 101 kPa, x2 = 0.2936): 0.561 ± 0.064 S/m; electrical conductivity (298 K, 101 kPa, x2 = 0.317): 0.613 ± 0.064 S/m; electrical conductivity (298 K, 101 kPa, x2 = 0.5053): 0.668 ± 0.064 S/m; electrical conductivity (298 K, 101 kPa, x2 = 0.6833): 0.653 ± 0.064 S/m; electrical conductivity (298 K, 101 kPa, x2 = 0.8349): 0.418 ± 0.064 S/m; electrical conductivity (298 K, 101 kPa, x2 = 0.8623): 0.368 ± 0.064 S/m

Which electrical conductivity (298.15 K, 100 kPa, x2 = 0) does the source give for `CCCC[n+]1ccn(C)c1.O=S(=O)([N-]S(=O)(=O)C(F)(F)F)C(F)(F)F` + CCCCOC(C)=O here?
The electrical conductivity was 0.39 ± 0.01 S/m.

What about the viscosity (298.15 K, 100 kPa, x2 = 0) of the same molecule?
The viscosity was 50.2 ± 2.3 mPa·s.
